Test results taken from US20170296545A1, “Composition Of A Ceramic Matrix With A Controlled Release Drug, A Tablet Obtained From The Composition And Methods For Obtaining The Composition And The Tablet” (priority 2009, published 2017).
Like-named read-outs stand apart in the source and are kept apart here.

Experiments:
Wistar rats [1] = conditions: rat, in vivo
Procedure: In the slices of the liver of the Wistar rats, it was evaluated the presence of hepatic necrosis, proliferation of biliary ducts, proliferation of fibrous conjunctive tissue, and blood extravasation (Cunha, et. al., 2009).

Wistar rats [2] = conditions: rat, in vivo; remark: listed apart in the source
Procedure: The tests were performed according to Organization for Economic Cooperation and development OECD 423 guide. The methodology consisted of toxicity by evaluating and analyzing of the biochemical and histopathological parameters which resulted from administration thereof.

[3] = cited from earlier work

Compound | histopathological evaluation of the liver (Wistar rats [1]; 50 mg/kg) | histopathological evaluation of the liver (Wistar rats [1]; 300 mg/kg) | histopathological evaluation of the liver (Wistar rats [1]; 2000 mg/kg) | histopathological evaluation of the livers (Wistar rats [1]; po) | macroscopic tests of the organs (Wistar rats [1]; po) | short-term repeated-dose toxicity (Wistar rats [2]) | solubility in acid or diluted alkaline solutions ([3]; acid or diluted alkaline solutions) | solubility in alcohol ([3]; alcohol) | solubility in water ([3]; water)
pseudoboehmite | tissue integrity | a sinusoidal congestion was detected | tissue integrity | there were not observed any changes in the tissue integrity or apparent injuries | No abnormal changes | low | – | – | –
Nc1nc2c(ncn2COCCO)c(=O)[nH]1 [acyclovir] | – | – | – | – | – | – | only slight soluble | insoluble | poorly soluble
